Assay results taken from US9326506B2, “Preparation method, agricultural composition and applications of natural brassinolide analogs” (CHENGDU NEWSUN CROPSCIENCE CO., LTD, priority 2012, dated 2016).

System: rice
Assay: Low temperature assay on rice seedlings
Type: in vivo
Description: According to a low temperature assay, we measured parameters including plant height, number of leaf, area of leaf, number of tiller, weight of root at low temperature to completely determine effects of the natural brassinolide analogues on the resistance to low temperature of a plant.
The natural brassinolide analogues, BR1, BR2, BR3, BR4, BR5 and BR6, used herein, were those prepared by the method of Example 1. Respectively the analogues were dissolved into 95% (V/V) ethanol solution, and then diluted with pure water to 1 mg/L, 0.1 mg/L, 0.01 mg/L, 0.001 mg/L and 0.0001 mg/L. In addition, pure water was used as a control.
After rice seeds were disinfected by using 5% sodium hypochlorite solution treatment, they were rinsed with distilled water until their pH>7, placed into a petri dish in a dark incubator, and cultured by using water at 30° C.±2° C. for 9 days. Then respectively the nine-day-old etiolated seedlings of rice were immersed in the above solutions containing different concentrations of the natural brassinolide analogues or pure water, and cultured at the temperature of 1° C., 2° C., 3° C., 4° C. and 5° C. for 24 hr. The parameters including plant height, area of leaf and weight of root after 3, 6, 9 and 12 days and number of leaf and number of tiller after 12 days were measured.

C=C(C(C)C)[C@@H](O)[C@H](O)[C@@H](C)[C@H]1CCC2C3COC(=O)C4C[C@H](O)[C@H](O)C[C@]4(C)C3CC[C@@]21C (stereo partly shown) [BR3]
10.1 cm^2: Area of leaf (0.01 mg/l, 2 °C, 3 days)
7.9 cm: Height (0.001 mg/l, 5 °C, 12 days)
7.4 cm: Height (0.0001 mg/l, 2 °C, 12 days) | Height (0.0001 mg/l, 3 °C, 9 days) | Height (0.0001 mg/l, 5 °C, 6 days) | Height (0.001 mg/l, 3 °C, 12 days) | Height (0.001 mg/l, 4 °C, 9 days) | Height (0.01 mg/l, 1 °C, 9 days) | Height (0.01 mg/l, 2 °C, 9 days)
16 cm^2: Area of leaf (0.001 mg/l, 5 °C, 12 days)
7.3 cm: Height (0.0001 mg/l, 4 °C, 6 days) | Height (0.001 mg/l, 1 °C, 12 days) | Height (0.001 mg/l, 2 °C, 12 days) | Height (0.001 mg/l, 3 °C, 9 days) | Height (0.001 mg/l, 4 °C, 6 days) | Height (0.01 mg/l, 3 °C, 6 days)
2.7 g: Weight of root (0.001 mg/l, 3 °C, 6 days) | Weight of root (0.01 mg/l, 3 °C, 6 days)
6.9 cm: Height (0.0001 mg/l, 1 °C, 6 days) | Height (0.0001 mg/l, 3 °C, 3 days) | Height (0.0001 mg/l, 4 °C, 3 days) | Height (0.001 mg/l, 1 °C, 3 days) | Height (0.001 mg/l, 2 °C, 3 days)
10.2 cm^2: Area of leaf (0.0001 mg/l, 5 °C, 3 days) | Area of leaf (0.001 mg/l, 5 °C, 3 days) | Area of leaf (0.01 mg/l, 3 °C, 3 days)
7.2 cm: Height (0.0001 mg/l, 1 °C, 12 days) | Height (0.001 mg/l, 3 °C, 6 days) | Height (0.001 mg/l, 5 °C, 3 days) | Height (0.01 mg/l, 2 °C, 6 days)
3.1 g: Weight of root (0.001 mg/l, 1 °C, 6 days) | Weight of root (0.001 mg/l, 2 °C, 9 days) | Weight of root (0.01 mg/l, 1 °C, 9 days) | Weight of root (0.01 mg/l, 2 °C, 6 days)
12.5 cm^2: Area of leaf (0.01 mg/l, 2 °C, 9 days)
12.6 cm^2: Area of leaf (0.001 mg/l, 1 °C, 9 days)
3.2 g: Weight of root (0.0001 mg/l, 2 °C, 9 days) | Weight of root (0.001 mg/l, 1 °C, 9 days) | Weight of root (0.01 mg/l, 2 °C, 12 days)
12 cm^2: Area of leaf (0.0001 mg/l, 5 °C, 6 days) | Area of leaf (0.001 mg/l, 2 °C, 9 days) | Area of leaf (0.001 mg/l, 3 °C, 6 days) | Area of leaf (0.001 mg/l, 4 °C, 6 days) | Area of leaf (0.01 mg/l, 3 °C, 6 days)
3.4 g: Weight of root (0.0001 mg/l, 1 °C, 9 days)
2: Number of tiller (0.0001 mg/l, 3 °C, 12 days) | Number of tiller (0.0001 mg/l, 4 °C, 12 days) | Number of tiller (0.0001 mg/l, 5 °C, 12 days) | Number of tiller (0.001 mg/l, 3 °C, 12 days) | Number of tiller (0.001 mg/l, 4 °C, 12 days)
2.5 g: Weight of root (0.0001 mg/l, 3 °C, 3 days) | Weight of root (0.0001 mg/l, 4 °C, 3 days) | Weight of root (0.0001 mg/l, 5 °C, 3 days) | Weight of root (0.0001 mg/l, 5 °C, 6 days) | Weight of root (0.001 mg/l, 3 °C, 3 days) | Weight of root (0.001 mg/l, 4 °C, 3 days) | Weight of root (0.01 mg/l, 3 °C, 3 days)
13.2 cm^2: Area of leaf (0.0001 mg/l, 3 °C, 12 days)
12.1 cm^2: Area of leaf (0.0001 mg/l, 2 °C, 9 days) | Area of leaf (0.0001 mg/l, 3 °C, 9 days) | Area of leaf (0.01 mg/l, 3 °C, 9 days)
10 cm^2: Area of leaf (0.0001 mg/l, 2 °C, 3 days) | Area of leaf (0.0001 mg/l, 3 °C, 3 days) | Area of leaf (0.0001 mg/l, 4 °C, 3 days) | Area of leaf (0.001 mg/l, 1 °C, 3 days) | Area of leaf (0.001 mg/l, 3 °C, 3 days) | Area of leaf (0.001 mg/l, 4 °C, 3 days) | Area of leaf (0.01 mg/l, 1 °C, 3 days)
15.4 cm^2: Area of leaf (0.001 mg/l, 5 °C, 9 days)
13 cm^2: Area of leaf (0.0001 mg/l, 2 °C, 12 days) | Area of leaf (0.0001 mg/l, 4 °C, 9 days) | Area of leaf (0.001 mg/l, 1 °C, 12 days) | Area of leaf (0.001 mg/l, 3 °C, 12 days) | Area of leaf (0.001 mg/l, 4 °C, 9 days)
7.0 cm: Height (0.0001 mg/l, 5 °C, 3 days) | Height (0.01 mg/l, 1 °C, 3 days)
2.6 g: Weight of root (0.0001 mg/l, 3 °C, 6 days) | Weight of root (0.0001 mg/l, 4 °C, 6 days) | Weight of root (0.001 mg/l, 4 °C, 6 days)
9.8 cm^2: Area of leaf (0.0001 mg/l, 1 °C, 3 days) | Area of leaf (0.001 mg/l, 2 °C, 3 days)
12.2 cm^2: Area of leaf (0.0001 mg/l, 1 °C, 9 days) | Area of leaf (0.001 mg/l, 3 °C, 9 days)
11.8 cm^2: Area of leaf (0.0001 mg/l, 3 °C, 6 days)
3.9 g: Weight of root (0.0001 mg/l, 1 °C, 12 days) | Weight of root (0.0001 mg/l, 2 °C, 12 days) | Weight of root (0.001 mg/l, 1 °C, 12 days) | Weight of root (0.001 mg/l, 2 °C, 12 days) | Weight of root (0.01 mg/l, 1 °C, 12 days)
13.6 cm^2: Area of leaf (0.01 mg/l, 1 °C, 12 days)
7.5 cm: Height (0.0001 mg/l, 3 °C, 12 days) | Height (0.0001 mg/l, 4 °C, 9 days) | Height (0.0001 mg/l, 4 °C, 12 days) | Height (0.0001 mg/l, 5 °C, 9 days) | Height (0.001 mg/l, 4 °C, 12 days) | Height (0.001 mg/l, 5 °C, 6 days) | Height (0.01 mg/l, 1 °C, 12 days) | Height (0.01 mg/l, 2 °C, 12 days)
3.7 g: Weight of root (0.001 mg/l, 5 °C, 12 days)
3.0 g: Weight of root (0.0001 mg/l, 2 °C, 6 days) | Weight of root (0.0001 mg/l, 5 °C, 12 days) | Weight of root (0.001 mg/l, 2 °C, 6 days) | Weight of root (0.001 mg/l, 5 °C, 9 days) | Weight of root (0.01 mg/l, 1 °C, 6 days)
13.1 cm^2: Area of leaf (0.0001 mg/l, 1 °C, 12 days) | Area of leaf (0.001 mg/l, 2 °C, 12 days) | Area of leaf (0.001 mg/l, 4 °C, 12 days)
2.9 g: Weight of root (0.0001 mg/l, 3 °C, 9 days) | Weight of root (0.0001 mg/l, 3 °C, 12 days) | Weight of root (0.0001 mg/l, 4 °C, 9 days) | Weight of root (0.0001 mg/l, 4 °C, 12 days) | Weight of root (0.0001 mg/l, 5 °C, 9 days) | Weight of root (0.001 mg/l, 3 °C, 9 days) | Weight of root (0.001 mg/l, 3 °C, 12 days) | Weight of root (0.001 mg/l, 4 °C, 9 days) | Weight of root (0.001 mg/l, 4 °C, 12 days) | Weight of root (0.001 mg/l, 5 °C, 6 days)
6.8 cm: Height (0.0001 mg/l, 1 °C, 3 days) | Height (0.0001 mg/l, 2 °C, 3 days)
7.7 cm: Height (0.0001 mg/l, 5 °C, 12 days)
13.4 cm^2: Area of leaf (0.0001 mg/l, 4 °C, 12 days) | Area of leaf (0.0001 mg/l, 5 °C, 9 days) | Area of leaf (0.01 mg/l, 2 °C, 12 days)
7.8 cm: Height (0.001 mg/l, 5 °C, 9 days)
3 g: Weight of root (0.0001 mg/l, 1 °C, 6 days) | Weight of root (0.01 mg/l, 2 °C, 9 days)
7 cm: Height (0.0001 mg/l, 2 °C, 6 days) | Height (0.001 mg/l, 3 °C, 3 days)
11.6 cm^2: Area of leaf (0.001 mg/l, 2 °C, 6 days) | Area of leaf (0.01 mg/l, 1 °C, 6 days)
11.3 cm^2: Area of leaf (0.001 mg/l, 1 °C, 6 days)
11 cm^2: Area of leaf (0.0001 mg/l, 1 °C, 6 days) | Area of leaf (0.01 mg/l, 2 °C, 6 days)
11.7 cm^2: Area of leaf (0.0001 mg/l, 2 °C, 6 days)
2.8 g: Weight of root (0.0001 mg/l, 1 °C, 3 days) | Weight of root (0.0001 mg/l, 2 °C, 3 days) | Weight of root (0.001 mg/l, 1 °C, 3 days) | Weight of root (0.001 mg/l, 2 °C, 3 days) | Weight of root (0.001 mg/l, 5 °C, 3 days) | Weight of root (0.01 mg/l, 1 °C, 3 days) | Weight of root (0.01 mg/l, 2 °C, 3 days)
3: Number of leaf (0.0001 mg/l, 1 °C, 12 days) | Number of tiller (0.0001 mg/l, 1 °C, 12 days) | Number of leaf (0.0001 mg/l, 2 °C, 12 days) | Number of tiller (0.0001 mg/l, 2 °C, 12 days) | Number of leaf (0.0001 mg/l, 3 °C, 12 days) | Number of leaf (0.0001 mg/l, 4 °C, 12 days) | Number of leaf (0.0001 mg/l, 5 °C, 12 days) | Number of leaf (0.001 mg/l, 1 °C, 12 days) | Number of tiller (0.001 mg/l, 1 °C, 12 days) | Number of leaf (0.001 mg/l, 2 °C, 12 days) | Number of tiller (0.001 mg/l, 2 °C, 12 days) | Number of leaf (0.001 mg/l, 3 °C, 12 days) | Number of leaf (0.001 mg/l, 4 °C, 12 days) | Number of leaf (0.001 mg/l, 5 °C, 12 days) | Number of tiller (0.001 mg/l, 5 °C, 12 days) | Number of leaf (0.01 mg/l, 1 °C, 12 days) | Number of tiller (0.01 mg/l, 1 °C, 12 days) | Number of leaf (0.01 mg/l, 2 °C, 12 days) | Number of tiller (0.01 mg/l, 2 °C, 12 days)
14 cm^2: Area of leaf (0.0001 mg/l, 5 °C, 12 days) | Area of leaf (0.001 mg/l, 5 °C, 6 days)
7.1 cm: Height (0.0001 mg/l, 1 °C, 9 days) | Height (0.0001 mg/l, 2 °C, 9 days) | Height (0.0001 mg/l, 3 °C, 6 days) | Height (0.001 mg/l, 1 °C, 6 days) | Height (0.001 mg/l, 1 °C, 9 days) | Height (0.001 mg/l, 2 °C, 6 days) | Height (0.001 mg/l, 2 °C, 9 days) | Height (0.001 mg/l, 4 °C, 3 days) | Height (0.01 mg/l, 1 °C, 6 days) | Height (0.01 mg/l, 2 °C, 3 days) | Height (0.01 mg/l, 3 °C, 3 days)
12.4 cm^2: Area of leaf (0.01 mg/l, 1 °C, 9 days)
11.5 cm^2: Area of leaf (0.0001 mg/l, 4 °C, 6 days)
